Measured values published in ChEMBL document CHEMBL4414589, “Development of High-Throughput Fluorescent-Based Screens to Accelerate Discovery of P2X Inhibitors from Animal Venoms” (J Nat Prod, 2019).

Assays:
Assay type in all cases: cell-based; call rule not given here
[1] = target: T1, P2X purinoceptor 7 (Homo sapiens, UniProt Q99572); experiment: Antagonist activity at human P2X7R transfected in HEK293 cells assessed as inhibition of ATP-mediated calcium influx measured after 10 mins by YOPRO-1 dye uptake assay
T1 sequence (Q99572 whole entry): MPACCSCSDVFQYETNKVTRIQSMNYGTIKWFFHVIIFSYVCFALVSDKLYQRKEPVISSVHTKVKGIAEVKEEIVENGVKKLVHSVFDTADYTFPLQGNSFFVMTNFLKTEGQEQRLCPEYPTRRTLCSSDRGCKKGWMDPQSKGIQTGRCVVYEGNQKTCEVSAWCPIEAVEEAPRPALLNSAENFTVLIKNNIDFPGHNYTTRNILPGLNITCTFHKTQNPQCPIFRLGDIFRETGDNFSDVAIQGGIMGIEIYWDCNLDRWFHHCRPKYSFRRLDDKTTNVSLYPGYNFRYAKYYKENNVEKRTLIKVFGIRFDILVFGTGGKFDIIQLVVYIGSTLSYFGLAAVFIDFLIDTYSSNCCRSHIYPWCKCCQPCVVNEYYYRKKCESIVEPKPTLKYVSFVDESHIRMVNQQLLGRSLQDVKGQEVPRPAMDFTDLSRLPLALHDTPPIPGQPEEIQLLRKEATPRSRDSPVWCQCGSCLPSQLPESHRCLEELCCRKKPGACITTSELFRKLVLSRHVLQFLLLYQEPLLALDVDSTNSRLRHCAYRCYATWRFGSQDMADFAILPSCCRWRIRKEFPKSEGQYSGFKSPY

[2] = target: T2, P2X purinoceptor 4 (Homo sapiens, UniProt Q99571); experiment: Antagonist activity at human P2X4R transfected in HEK293 cells assessed as inhibition of ATP-mediated calcium influx measured after 10 mins by YOPRO-1 dye uptake assay
T2 sequence (Q99571 whole entry): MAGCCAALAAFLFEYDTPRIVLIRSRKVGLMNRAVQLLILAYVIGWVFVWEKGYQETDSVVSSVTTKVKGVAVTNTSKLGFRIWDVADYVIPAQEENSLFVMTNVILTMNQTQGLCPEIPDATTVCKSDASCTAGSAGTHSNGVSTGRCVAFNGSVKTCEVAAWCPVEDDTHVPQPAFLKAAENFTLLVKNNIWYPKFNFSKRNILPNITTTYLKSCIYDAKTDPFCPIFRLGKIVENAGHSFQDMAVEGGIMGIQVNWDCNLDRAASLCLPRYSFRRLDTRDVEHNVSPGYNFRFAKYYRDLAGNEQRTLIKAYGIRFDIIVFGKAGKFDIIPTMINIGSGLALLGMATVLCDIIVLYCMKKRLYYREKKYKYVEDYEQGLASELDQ

[3] = target: T2, P2X purinoceptor 4; experiment: Antagonist activity at human P2X4R transfected in 1321N1 cells assessed as inhibition of ATP-mediated calcium influx measured after 10 mins by Fura-2AM assay

IC50 [2]	IC50 [3]	SMILES	IC50 [1]
		CC(C)c1cc(Br)c(NC(=O)Nc2cccnc2)c(Br)c1	Not Active
		Cc1ccc(S(=O)(=O)N2c3ccccc3Oc3ccccc32)cc1	Not Active
		O=C1CN=C(c2cccc(Br)c2)c2oc3ccccc3c2N1	Not Active
Not Active	Not Active	O=C(CC12CC3CC(CC(C3)C1)C2)Nc1cccc2nc(NCCNCCO)ccc12	
